In US8426151B2, “Systems and methods for the detection of biomarkers” (Companion Diagnostics Inc., priority 2010, dated 2013):
Several values for one entry are separate records, joined by “and”; a condition that tells them apart may be missing. Equal values may be shown once.

Assays:
α-amylase = biological target: T1, α-amylase (Homo sapiens, UniProt P0DUB6); assay: α-Amylase inhibition saliva screening (2-chloro-p-nitrophenol-maltotriose substrate, 405 nm); format: biochemical; conditions: for absorbance at 405 nm, single readings: 37° C., beside 100% Saliva Control; for Ave: mean of four readings at 405 nm
T1 sequence (P0DUB6 16-511): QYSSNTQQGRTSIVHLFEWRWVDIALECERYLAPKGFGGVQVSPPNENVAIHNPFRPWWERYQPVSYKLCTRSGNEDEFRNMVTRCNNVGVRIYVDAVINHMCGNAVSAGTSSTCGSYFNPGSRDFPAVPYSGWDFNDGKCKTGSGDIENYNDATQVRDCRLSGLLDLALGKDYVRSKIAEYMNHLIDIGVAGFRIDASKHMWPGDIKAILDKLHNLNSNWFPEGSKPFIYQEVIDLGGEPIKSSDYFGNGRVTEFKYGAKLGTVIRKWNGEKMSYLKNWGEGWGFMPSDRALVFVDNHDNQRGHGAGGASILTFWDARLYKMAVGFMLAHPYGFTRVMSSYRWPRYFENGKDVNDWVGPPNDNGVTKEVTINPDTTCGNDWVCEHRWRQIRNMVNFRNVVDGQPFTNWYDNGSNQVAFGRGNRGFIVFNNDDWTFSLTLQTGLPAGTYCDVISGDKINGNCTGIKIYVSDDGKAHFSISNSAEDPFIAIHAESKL
Source text: Enzymatic activity of α-amylase on the substrate yields 2-chloro-p-nitrophenol, which can be measured spectrophotometrically at 405 nm. The amount of α-amylase activity present in the experimental sample is directly proportional to the increase in absorbance at 405 nm.

peroxidase = assay: Peroxidase assay in saliva (Amplex Red); format: biochemical; conditions: 500 ppm, 30 minutes, FIGS. 26-29
Method: To determine the effect of various GRAS compounds as inhibitors of peroxidase activity, a standard assay using Amplex® Red (Life Technologies), which releases a fluorescent oxidation product.
The test compounds, such as GRAS materials or cocktails of same, were prepared at a concentration of 500 ppm in distilled water. For the assay, 50 μl samples of test compounds were mixed with 20-30 μl of saliva (either “pooled” or “unpooled”) prior to the addition of Amplex® Red. Following the mixture of the test compounds with saliva, 50 μl of Amplex® Red/HRP working solution (See Protocol for Invitrogen Assay #A22188, which is incorporated herein in its entirety), which has a concentration of 100 μM of Amplex® Red, is added to the test compound/saliva mixture. […] Reactions were allowed to run for 30 minutes during these assays.

Compound | absorbance at 405 nm, single readings (α-amylase; 0 min, sulfate hydrate) | Ave (α-amylase; 0 min) | absorbance at 405 nm, single readings (α-amylase; 5 min, sulfate hydrate) | Ave (α-amylase; 5 min) | absorbance at 405 nm, single readings (α-amylase; 15 min, sulfate hydrate) | Ave (α-amylase; 15 min) | peroxidase inhibition (peroxidase) | absorbance at 405 nm, single readings (α-amylase; 0 min) | absorbance at 405 nm, single readings (α-amylase; 5 min)
Aluminum sulfate hydrate [CDI-34] | 0.40 and 0.36 and 0.45 | 0.40 | 0.49 and 0.50 and 0.52 | 0.50 | 0.53 and 0.61 and 0.54 and 0.56 | 0.56 | – | – | –
Cn1c(=O)c2c(ncn2C)n(C)c1=O [CDI #33, Caffeine] | – | – | – | – | – | – | significant peroxidase inhibition capabilities | – | –
Aluminum potassium sulfate dodecahydrate [CDI-42] | – | 0.92 | – | 1.85 | – | 2.29 | significant peroxidase inhibition capabilities | 0.80 and 0.90 and 0.84 | 1.80
COc1ccc(O)c(C(C)(C)C)c1 [CDI-039, 3-tert--butyl-hydroxyanisole] | – | – | – | – | – | – | significant peroxidase inhibition capabilities | – | –
